One test concerns HCT116 cells. The experiment in a line: MTT assay. The following applies: Homo sapiens. Type of test: cell-based. In short, it runs like this:
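Read-out: MTT (0.5 mg/ml final, 4 h) after solubilization in 50% DMF/20% SDS, pH 4.7, with OD translated into cell number via the line's growth curve. Compound treatment lasted 72 h at 37 °C in 5% CO2, starting a day after plating.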
A general note: Tetrazolium dyes change colour on reduction, which living cells bring about.

Test [1] has as its system acetylated histone H-4 in T24 human bladder cancer cells. The experiment in a line: Histone H4 acetylation in whole cells by immunoblots. Type of test: cell-based. The following applies: 16 h. In short, it runs like this: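 Acetylated histone H4 was quantified by densitometry of ECL-developed immunoblots, probed with a polyclonal antibody, of […] total histone from T24 cultures exposed 16 h to HDAC inhibitors.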
(In general: A western blot detects proteins with antibodies after separation by electrophoresis.)

The target of test [2] is T1, cloned recombinant human HDAC-1 (Homo sapiens, UniProt Q13547).
T1 construct: made in house; host or cells: Baculovirus insect cell expression system
The experiment in a line: Human HDAC-1 enzyme inhibition, Assay 1 ([3H]-acetylated histone substrate, scintillation counting). The following applies: read-out: Human HDAC-1 IC50. Type of test: biochemical. Put shortly:
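Activity read as [3H]-acetic acid liberated from labeled substrate, ethyl acetate-extracted and scintillation-counted. Compounds preincubated 30 min at 4° C. with baculovirus-expressed, purified human HDAC-1. Dose-response curves give IC50 as concentration producing fifty percent of maximal inhibition.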

Test [3] deals with HCT116 human colorectal carcinoma cells. The experiment in a line: Antitumor activity in HCT116 human colorectal tumor xenograft model in vivo. Also on record: species or system BALB/c nude mice. The following applies: Mus musculus, ip, HCT 116 colorectal tumor model, read-out: % Inhibition of Tumor Growth; for inhibition in vivo at 40 mg/kg: 40 mg/kg i.p.; for inhibition in vivo at 20 mg/kg: 20 mg/kg i.p. The procedure: Eight to ten week old female BALB/c nude mice (Taconic Labs, Great Barrington, N.Y.) were injected subcutaneously in the flank area with 2×10^6 preconditioned HCT116 human colorectal carcinoma cells. Preconditioning of these cells was done by a minimum of three consecutive tumor transplantations in the same strain of nude mice. Subsequently, tumor fragments of approximately 30 mgs were excised and implanted subcutaneously in mice, in the left flank area, under Forene anesthesia (Abbott Labs, Geneve, Switzerland). When the tumors reached a mean volume of 100 mm^3, the mice were treated intravenously, subcutaneously, or intraperitoneally by daily injection, with a solution of the histone deacetylase inhibitor in an appropriate vehicle, such as PBS, DMSO/water, or Tween 80/water, at a starting dose of 10 mg/kg. The optimal dose of the HDAC inhibitor was established by dose response experiments according to standard protocols. Tumor volume was calculated every second day post infusion according to standard methods (e.g., Meyer et al., Int. J. Cancer 43: 851-856 (1989)). […] FIGS. 2-10 show the results of additional compounds tested.
For orientation: Xenograft models place foreign cells or tissue in a host animal.

The target in a further test is HDAC-1 (Homo sapiens, UniProt Q13547). The experiment in a line: Human HDAC-1 enzyme inhibition, Assay 2 (Boc-Lys(Ac)-AMC, Fluor-de-Lys fluorescence; compounds 604-617). Type of test: biochemical. The following applies: read-out: HDAC1 IC50. The procedure:
Assay 2. The following protocol was also used to assay the compounds of the invention. In the assay, the buffer used was 25 mM HEPES, pH 8.0, 137 mM NaCl, 2.7 mM […], 1 mM MgCl2 and the substrate was Boc-Lys(Ac)-AMC in a 50 mM stock solution in DMSO. The enzyme stock solution was 4.08 μg/mL in buffer. The compounds were pre-incubated (2 μl in DMSO diluted to 13 μl in buffer for transfer to assay plate) with enzyme (20 μl of 4.08 μg/ml) for 10 minutes at room temperature (35 μl pre-incubation volume). The mixture was pre-incubated for 5 minutes at room temperature. The reaction was started by bringing the temperature to 37° C. and adding […] substrate. Total reaction volume was 50 μl. […] A plate was incubated in the dark for 10 minutes at room temperature before reading (λEx=360 nm, λEm=470 nm, Cutoff filter at 435 nm). Assay 2 was used to measure HDAC activity of compounds 604-617 (Table 5). HDAC activity of the remaining compounds was measured by assay 1.

[4] abbreviates: HCT-116, 72 h, Table 5a, HCT116 cells, 72 hours.
Setting [5] is: T-24, Table 5a, read-out: H4Ac (T24) EC50.
The mark [6] stands for this setting: HCT-116, 72 h, Table 5E, HCT116 cells, 72 hours.
The mark [7] stands for this setting: T-24, Table 5E, read-out: H4 Ac (T24) EC50.
[8] abbreviates: HCT-116, 72 h, Table 5c, HCT116 cells, 72 hours.
The mark [9] stands for this setting: T-24, Table 5c, read-out: H4Ac (T24) EC50.
Where [10] appears, read: HCT-116, 72 h, Table 5F, HCT116 cells, 72 hours.
Where [11] appears, read: T-24, Table 5F, read-out: H4 Ac (T24) EC50.

As a reminder, the pIC50 is −log10 of the IC50, conventionally taken in molar units. Usually pEC50 stands for the EC50 on a negative log10 scale, so that one unit is a factor of ten.

pEC50, pIC50: −log10 of the molar value. Read-outs that look alike come from different tables or passages of the source.

HDAC-1, sequence (Q13547 whole entry): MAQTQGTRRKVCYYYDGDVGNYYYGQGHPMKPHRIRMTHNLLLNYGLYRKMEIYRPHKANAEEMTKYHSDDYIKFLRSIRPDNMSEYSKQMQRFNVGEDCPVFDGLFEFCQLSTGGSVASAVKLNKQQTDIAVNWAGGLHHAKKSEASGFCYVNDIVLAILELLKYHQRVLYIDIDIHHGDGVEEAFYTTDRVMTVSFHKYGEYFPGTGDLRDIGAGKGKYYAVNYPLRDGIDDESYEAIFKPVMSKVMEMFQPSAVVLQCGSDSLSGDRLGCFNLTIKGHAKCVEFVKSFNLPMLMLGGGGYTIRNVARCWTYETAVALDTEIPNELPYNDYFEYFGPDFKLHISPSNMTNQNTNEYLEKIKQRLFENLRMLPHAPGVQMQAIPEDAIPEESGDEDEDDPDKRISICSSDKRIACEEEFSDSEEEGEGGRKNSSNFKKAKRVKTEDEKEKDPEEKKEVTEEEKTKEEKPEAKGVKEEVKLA
T1 sequence (Q13547 whole entry): as above

Consider `Nc1nc(NCc2ccc(C(=O)Nc3ccccc3N)cc2)nc(N2CCCCC2)n1` [Cpd 15, N-(2-amino-phenyl)-4-[(4-amino-6-piperidin-1-yl [1,3,5]-triazin-2-ylamino)-methyl]-benzamide], for which the pIC50 with HCT116 cells (setting [4]) is 6.70; in test [2] (Table 5a) it was 6.30. For the same compound, the pEC50 in test [1] (setting [5]) was 5.52. Also, the inhibition in vivo at 40 mg/kg in test [3] is 26%.

With `Nc1ccccc1NC(=O)c1ccc(Cn2c(=O)[nH]c3ccccc3c2=O)cc1` [Cpd 157, N-(2-Amino-phenyl)-4-(2,4-dioxo-1,4-dihydro-2H-quinazolin-3-ylmethyl)-benzamide], in the test on HCT116 cells (setting [6]), the negative logarithm of the IC50 (pIC50) was 6.22. Moreover, the pEC50 in test [1] (setting [7]) was 6.00. In addition, the inhibition in vivo at 20 mg/kg in test [3] stood at 66%.

Consider `COC(=O)c1ccc(O[C@H]2CCN(c3ccc(C(=O)Nc4ccccc4N)cc3)C2)cc1` [compound 611, (S)-methyl-4-(1-(4-(2-aminophenylcarbamoyl)phenyl)pyrrolidin-3-yloxy)benzoate], for which the pIC50 at HDAC-1 is 7.01; with HCT116 cells (HCT-116, HCT116 cells) it was 6.22.

Consider `Nc1nc(NCc2ccc(C(=O)Nc3ccccc3N)cc2)nc(NC2CCCC2)n1` [Cpd 16], for which the pIC50 with HCT116 cells (setting [4]) was 6.40; in test [2] (Table 5a), 6.00. Moreover, in test [1] (setting [5]), the pEC50 is 6.00. Moreover, in test [3], the inhibition in vivo at 40 mg/kg was 50%.

As to `Nc1ccccc1NC(=O)c1ccc(N2CC[C@@H](Nc3ccccc3)C2)cc1` [compound 609, (R)-N-(2-aminophenyl)-4-(3-(phenylamino)pyrrolidin-1-yl)benzamide], the pIC50 on HDAC-1 was 5.91; in the test with HCT116 cells (HCT-116, HCT116 cells), 5.70.

`Nc1ccccc1NC(=O)c1ccc(N2CC[C@H](Oc3ccc(Oc4ccccc4)cc3)C2)cc1` [compound 615, (S)-N-(2-aminophenyl)-4-(3-(4-phenoxyphenoxy)pyrrolidin-1-yl)benzamide]: the pIC50 on HDAC-1 was 5.86; in the test with HCT116 cells (HCT-116, HCT116 cells), 5.40.

As to `Nc1ccccc1NC(=O)/C=C/c1ccc(NCc2cccc(OC(F)(F)F)c2)nc1` [Cpd 98, N-(2-aminophenyl)-3-[6-(3-trifluoromethoxy-benzylamino)-pyridin-3-yl]-acrylamide], the pIC50 was 5.70 with HCT116 cells (setting [8]) and 6.40 in test [2] (Table 5c). For the same compound, in test [1] (setting [9]), the negative logarithm of the EC50 (pEC50) is 4.82. For the same compound, the inhibition in vivo at 20 mg/kg in test [3] stood at 52%.

Turning to `Nc1ccccc1NC(=O)c1ccc(CSc2nc3ccccc3[nH]2)cc1` [Cpd 126, N-(2-Amino-phenyl)-4-(1H-benzimidazol-2-ylsulfanylmethyl)-benzamide], the pIC50 in the test on HCT116 cells (setting [6]) was 6.70. Also, in test [1] (setting [7]), the pEC50 was 6.00. Moreover, the inhibition in vivo at 40 mg/kg in test [3] is 62%.

Take `Nc1nc(NCc2ccc(C(=O)Nc3ccccc3N)cc2)nc(N2CCOCC2)n1` [Cpd 9, 4-[(4-amino-6-morpholin-4-yl-[1,3,5]-triazin-2-ylamino)-methyl]-N-(2-amino-phenyl)-benzamide]: the pIC50 in the test with HCT116 cells (setting [4]) is 6.15; in test [2] (Table 5a), 5.70. Also, in test [1] (setting [5]), the pEC50 was 5.30. For the same compound, the inhibition in vivo at 40 mg/kg in test [3] worked out at 51%.

With `Nc1ccccc1NC(=O)c1ccc(N2CC[C@@H](Oc3cccnc3)C2)cc1` [compound 607, (R)-N-(2-aminophenyl)-4-(3-(pyridin-3-yloxy)pyrrolidin-1-yl)benzamide], the pIC50 was 6.19 at HDAC-1 and 6.00 with HCT116 cells (HCT-116, HCT116 cells).

For the compound `COc1ccc(CNc2ccc3cc(C(=O)Nc4ccccc4N)ccc3n2)cc1` [Cpd 87], the pIC50 in the test on HCT116 cells (setting [6]) is 6.00; in test [2] (Table 5E) it was 5.70. For the same compound, in test [1] (setting [7]), the pEC50 is 5.30. Besides, the inhibition in vivo at 40 mg/kg in test [3] was 30%.

Regarding `Nc1ccccc1NC(=O)c1ccc(N2CC[C@H](Oc3ccccc3)C2)cc1` [compound 610, (S)-N-(2-aminophenyl)-4-(3-phenoxypyrrolidin-1-yl)benzamide], the pIC50 at HDAC-1 was 6.58; in the test with HCT116 cells (HCT-116, HCT116 cells), 6.12.

For the compound `COc1ccc(CCNc2ccc(C(=O)Nc3ccccc3N)cn2)cc1` [Cpd 168], the pIC50 in the test with HCT116 cells (setting [6]) was 6.10. Also, in test [1] (setting [7]), the pEC50 was 5.70. Further, the inhibition in vivo at 40 mg/kg in test [3] turned out to be 26%.

`Nc1ccccc1NC(=O)c1ccc(N2CC[C@H](Oc3ccc(C(=O)O)cc3)C2)cc1` [compound 612, (S)-4-(1-(4-(2-aminophenylcarbamoyl)phenyl)pyrrolidin-3-yloxy)benzoic acid]: the pIC50 was 6.09 at HDAC-1 and 4.41 with HCT116 cells (HCT-116, HCT116 cells).

With `Nc1ccccc1NC(=O)c1ccc(N2CC[C@H](Oc3ccc([N+](=O)[O-])cc3)C2)cc1` [compound 616, (S)-N-(2-aminophenyl)-4-(3-(4-nitrophenoxy)pyrrolidin-1-yl)benzamide], the pIC50 was 6.97 at HDAC-1 and 6.15 with HCT116 cells (HCT-116, HCT116 cells).

Regarding `COc1cc(NCc2ccc(/C=C/C(=O)Nc3ccccc3N)cc2)cc(OC)c1OC` [Cpd 106, N-(2-aminophenyl)-3-{4-[(3,4,5-trimethoxy-phenylamino)-methyl]-phenyl}-acrylamide], in the test with HCT116 cells (setting [8]), the pIC50 was 5.70. In addition, in test [1] (setting [9]), the pEC50 was 6.00. Besides, the inhibition in vivo at 20 mg/kg in test [3] is 80%.

On to `CCn1c(=O)n(Cc2ccc(C(=O)Nc3ccccc3N)cc2)c(=O)c2cc(Br)ccc21` [Cpd 344, N-(2-Amino-phenyl)-4-(6-bromo-1-ethyl-2,4-dioxo-1,4-dihydro-2H-quinazolin-3-ylmethyl)-benzamide], for which the pIC50 was 6.70 with HCT116 cells (setting [10]) and 6.30 in test [2] (Table 5F). Besides, in test [1] (setting [11]), the pEC50 is 6.00.

Regarding `Nc1ccccc1NC(=O)c1ccc(CNc2ncc(Br)s2)cc1` [Cpd 467, N-(2-Amino-phenyl)-4-[(5-bromo-thiazol-2-ylamino)-methyl]-benzamide], the figures for the pIC50 (in the test with HCT116 cells (setting [10]); in test [2] (Table 5F)) were 6.40 and 5.40, respectively. The pEC50 in test [1] (setting [11]) is 5.70.

As for `COc1cc(OC)cc(OCc2ccc(C(=O)Nc3ccccc3N)cc2)c1` [Cpd 395, N-(2-Amino-phenyl)-4-(3,5-dimethoxy-phenoxymethyl)-benzamide], the pIC50 was 6.00 in the test on HCT116 cells (setting [10]) and 5.70 in test [2] (Table 5F). For the same compound, the pEC50 in test [1] (setting [11]) is 5.30.

`Cc1cc(C)nc(NCc2ccc(C(=O)Nc3ccccc3N)cc2)n1` [Cpd 382, N-(2-Amino-phenyl)-4-[(4,6-dimethyl-pyrimidin-2-ylamino)-methyl]-benzamide]: the values for the pIC50 (with HCT116 cells (setting [10]); in test [2] (Table 5F)) were 6.00 and 5.52, respectively. In addition, the pEC50 in test [1] (setting [11]) is 5.52.

On to `Nc1ccccc1NC(=O)c1ccc(NCc2nc3ccccc3[nH]2)cc1` [Cpd 334], for which the pIC50 in the test with HCT116 cells (setting [10]) is 6.70; in test [2] (Table 5F), 5.10. Also, the pEC50 in test [1] (setting [11]) was 6.00.

Turning to `COc1cc(OC)nc(NCc2ccc(C(=O)Nc3ccccc3N)cc2)n1` [Cpd 169], the pIC50 is 6.15 in the test with HCT116 cells (setting [6]) and 6.52 in test [2] (Table 5E). Further, the pEC50 in test [1] (setting [7]) was 6.00.

As for `Nc1ccccc1NC(=O)c1ccc(CSc2cccc3cccnc23)cc1` [Cpd 391, N-(2-Amino-phenyl)-4-(quinolin-8-ylsulfanylmethyl)-benzamide], the results for the pIC50 (in the test with HCT116 cells (setting [10]); in test [2] (Table 5F)) were 6.05 and 6.00, respectively. Besides, in test [1] (setting [11]), the negative-log EC50 (pEC50) was 5.52.

With `Nc1nc(NCc2ccc(C(=O)Nc3ccccc3N)cc2)nc(NC2c3ccccc3-c3ccccc32)n1` [Cpd 14, 4-{[4-Amino-6-(9H-fluoren-9-ylamino)-[1,3,5]triazin-2-ylamino]-methyl)-N-(2-amino-phenyl)-benzamide], the figures for the pIC50 (with HCT116 cells (setting [4]); in test [2] (Table 5a)) were 6.00 and 6.52, respectively. Moreover, the pEC50 in test [1] (setting [5]) was 5.30.

Source of the values: patent US7868204B2, “Inhibitors of histone deacetylase” (MethylGene Inc., priority 2001, dated 2011).
